Here are results for one substance from US4377578A, “Piperazine derivatives” (priority 1981, dated 1983).

For experiment [1], the system named is anaphylactic shock in guinea pigs sensitized to ovalbumin. Put plainly: Anaphylaxis in guinea pigs: protection against death (survival) after ovalbumin challenge. It counts as in vivo, guinea pig. The note with it: Table I-b; estimated ED50, oral, protection against death after i.v. 0.6 mg ovalbumin. The method, then:
The anti-anaphylactic and antihistaminic effects of the subject compounds (I) and salts thereof are studied "in vivo" in guinea pigs.
Guinea pigs, weighing between 400 and 500 g, are sensitized to ovalbumin by subplantar (s.p.) injection of 0.05 ml of antiserum in the left hind paw. The animals are then starved and orally treated, 24 hours after the sensitization, with saline (=control animals) or a particular dose of the compound under investigation.
The histamine injection (at a dose of 50 μg) was given s.p. in the right hind paw 2 hours after the oral pretreatment with the compound. The diameters of both hind paws are first measured before the histamine injection is given and again 10 minutes thereafter. The animals are challenged intravenously with 0.6 mg of ovalbumin 30 minutes after the histamine injection. All control animals develop tyical primary anaphylactic shock symptoms (coughing, difficult breathing, convulsions) and 85% of these control animals die within 15 minutes after the ovalbumin injection. Protection against death is used as the criterion for possible drug effects and the estimated ED50 -value, i.e. the oral dose whereby the protection is observed in 50% of the guinea pigs, is listed in the tables below.

The subject of experiment [2] is histamine paw oedema in guinea pigs. Description: Histamine paw oedema in guinea pigs. The experiment is classed as in vivo, guinea pig. The conditions noted are these: Table I-b, 2 hours before s.p. histamine 50 μg, oedema below 10 units at 10 minutes. The method, then: Guinea pigs, weighing between 400 and 500 g, are sensitized to ovalbumin by subplantar (s.p.) injection of 0.05 ml of antiserum in the left hind paw. The animals are then starved and orally treated, 24 hours after the sensitization, with saline (=control animals) or a particular dose of the compound under investigation. The histamine injection (at a dose of 50 μg) was given s.p. in the right hind paw 2 hours after the oral pretreatment with the compound.

The subject of experiment [3] is histamine-induced spasms of guinea-pig ileum strips. Put plainly: Anti-histamine activity in vitro (guinea-pig ileum). It counts as cell-based. The conditions noted are these: Table I-b; histamine 0.5 mg/liter, 5 minutes incubation, significant inhibition (50%) of contraction. The method, then:
The histamine-(0.5 mg/liter) induced spasms are recorded Kymographically with an isotonic lever giving a 5-fold magnification.

In the case of “1-[3-{4-[(3-chlorophenyl)phenylmethyl]-1-piperazinyl}propyl]-1H-benzimidazole trihydrochloride.hydrate.hemi-2-propanolate [I-b: M=H, R1=H, (CH2)4, R6=3-Cl, R7=H]”, the “Anaphylaxis in guinea pigs oral effective dose in mg/kg: Survival” value in experiment [1] is recorded as 1.25 mg/kg. In experiment [2], the “Anaphylaxis in guinea pigs oral effective dose in mg/kg: Histamine oedema” value worked out at 1.25 mg/kg. Further, in experiment [3], the “Histamine in "vitro" (ileum) effective conc.” value came to 0.01 mg/L.
